Results as given in ChEMBL document CHEMBL1201862, “PubChem BioAssay data set” (2004).
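All cell lines were grown in 96-well plates and treated with compound for 48 hours. GI50 marks 50% less growth.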 Calls of active or inactive are those of the source. Rule as the data show it: active = GI50 up to about 1.1 µM and inactive = higher.

What was measured:
Test in all cases: inhibition of tumour cell growth, NCI panel, 48 h
OVCAR-4 = test system: OVCAR-4
K562 = test system: K562
ACHN = test system: ACHN
NCI-H460 = test system: NCI-H460
OVCAR-8 = test system: OVCAR-8
RPMI-8226 = test system: RPMI-8226
HCC 2998 = test system: HCC 2998
HOP-62 = test system: HOP-62
KM12 = test system: KM12
MOLT-4 = test system: MOLT-4
OVCAR-5 = test system: OVCAR-5
UACC-62 = test system: UACC-62
SW-620 = test system: SW-620
HL-60 = test system: HL-60
A498 = test system: A498
SK-MEL-5 = test system: SK-MEL-5
U-251 = test system: U-251

Measured: GI50

CC(/C=C/NNC1=NN=C(c2ccccc2)C(c2ccccc2)N1)Sc1ccccc1N (stereo not given)
inactive: OVCAR-4 6.21 µM | K562 6.24 µM | ACHN 10.4 µM | NCI-H460 9.98 µM | OVCAR-8 4.36 µM | RPMI-8226 3.64 µM | HCC 2998 15.7 µM | HOP-62 17.9 µM | KM12 8.85 µM | MOLT-4 3.43 µM | OVCAR-5 17.5 µM | UACC-62 3.39 µM | SW-620 2.75 µM | HL-60 2.36 µM | A498 13.6 µM | SK-MEL-5 9.66 µM | U-251 2.34 µM

COC(=O)C1=Cc2cc(OC)c(OC)c(OC)c2[C@H](c2cc(OC)c(OC)c(OC)c2)C1C(=O)OC (stereo not given in full)
inactive: OVCAR-4 > 100 µM | K562 > 100 µM | ACHN > 100 µM | NCI-H460 > 100 µM | OVCAR-8 > 100 µM | RPMI-8226 > 100 µM | HCC 2998 > 100 µM | HOP-62 > 100 µM | KM12 > 100 µM | MOLT-4 > 100 µM | OVCAR-5 > 100 µM | UACC-62 > 100 µM | SW-620 > 100 µM | HL-60 > 100 µM | A498 > 100 µM | SK-MEL-5 > 100 µM | U-251 > 100 µM

O=C1NC(=S)NC(=O)C1=Cc1ccc2ccccc2n1
inactive: OVCAR-4 > 100 µM | K562 > 100 µM | ACHN > 100 µM | NCI-H460 > 100 µM | OVCAR-8 > 100 µM | RPMI-8226 > 100 µM | HCC 2998 > 100 µM | HOP-62 > 100 µM | KM12 > 100 µM | MOLT-4 > 100 µM | OVCAR-5 > 100 µM | UACC-62 > 100 µM | SW-620 > 100 µM | HL-60 > 100 µM | A498 > 100 µM | SK-MEL-5 > 100 µM | U-251 > 100 µM

O=c1[nH]c(S)nc2c1sc(=S)n2-c1ccccc1
inactive: OVCAR-4 > 100 µM | K562 > 100 µM | ACHN > 100 µM | NCI-H460 > 100 µM | OVCAR-8 > 100 µM | RPMI-8226 > 100 µM | HCC 2998 > 100 µM | HOP-62 > 100 µM | KM12 > 100 µM | MOLT-4 > 100 µM | OVCAR-5 > 100 µM | UACC-62 > 100 µM | SW-620 > 100 µM | HL-60 > 100 µM | A498 > 100 µM | SK-MEL-5 > 100 µM | U-251 > 100 µM

Cc1ccccc1/C=C/c1csnn1
inactive: OVCAR-4 > 100 µM | K562 > 100 µM | ACHN > 100 µM | NCI-H460 > 47.3 µM | OVCAR-8 > 100 µM | RPMI-8226 33.4 µM | HCC 2998 > 100 µM | HOP-62 > 100 µM | KM12 > 100 µM | MOLT-4 > 100 µM | OVCAR-5 > 100 µM | UACC-62 > 100 µM | SW-620 > 56.4 µM | HL-60 21.1 µM | A498 > 100 µM | SK-MEL-5 > 100 µM | U-251 > 100 µM

C1CN(P2(N3CC3)=NP(N3CC3)(N3CC3)=NP(N3CC3)(N3CC3)=N2)CCO1 (stereo not given) [FOTRETAMINE]
inactive: OVCAR-4 > 100 µM | K562 > 77.8 µM | ACHN 37.5 µM | NCI-H460 4.57 µM | OVCAR-8 > 100 µM | RPMI-8226 > 95.7 µM | HCC 2998 > 100 µM | HOP-62 26.6 µM | KM12 > 100 µM | MOLT-4 8.2 µM | OVCAR-5 > 100 µM | UACC-62 > 56.6 µM | SW-620 > 100 µM | HL-60 36.6 µM | A498 > 100 µM | SK-MEL-5 > 100 µM | U-251 71.6 µM

CC12CC/C(=N/NC(N)=O)C3C1CCCC32
inactive: OVCAR-4 > 100 µM | K562 > 100 µM | ACHN > 100 µM | NCI-H460 > 100 µM | OVCAR-8 > 100 µM | RPMI-8226 > 100 µM | HCC 2998 > 100 µM | HOP-62 > 100 µM | KM12 > 100 µM | MOLT-4 > 100 µM | UACC-62 > 100 µM | SW-620 > 100 µM | HL-60 > 100 µM | A498 > 100 µM | SK-MEL-5 > 100 µM | U-251 > 100 µM

Cc1cc2nc(O)c(CCC(=O)O)nc2cc1C
inactive: OVCAR-4 > 100 µM | K562 > 100 µM | ACHN > 100 µM | NCI-H460 > 100 µM | OVCAR-8 > 100 µM | RPMI-8226 > 100 µM | HCC 2998 > 100 µM | HOP-62 > 100 µM | KM12 > 100 µM | MOLT-4 > 100 µM | OVCAR-5 > 100 µM | UACC-62 > 100 µM | HL-60 > 100 µM | A498 > 100 µM | SK-MEL-5 > 100 µM | U-251 > 100 µM

CC(=O)O[C@@H]1CC(C)C2CC2C2=C(C(O)OC2O)[C@@H]1C(C)CCC=C(C)C (stereo not given in full)
inactive: OVCAR-4 24.4 µM | K562 23.9 µM | ACHN 31.7 µM | NCI-H460 20 µM | OVCAR-8 27 µM | RPMI-8226 25.2 µM | HCC 2998 20.8 µM | HOP-62 26.9 µM | MOLT-4 24.6 µM | OVCAR-5 18.3 µM | UACC-62 26.3 µM | SW-620 23 µM | HL-60 20.4 µM | A498 35.7 µM | SK-MEL-5 25.3 µM | U-251 19.4 µM
